US6896895B2, “Carotenoid esters, carotenoid-enriched feeds, and methods of pigmenting foods and foodstuffs” (DSM IP Assets B.V., priority 2000, dated 2005)

Tested on: egg yolk
Test: Egg yolk colour: reflectance colorimetry and Roche Yolk Colour Fan
Type: in vivo, laying hens (ISA Brown)
Set-up: key to Chroma C*ab Value: CIE L*a*b* chroma C* value; key to Color Fan Value / Color Fan Value Value: visual score on Roche Yolk Colour Fan (RYCF, 1993 version); key to Color Fan Value, Pigmentation: − = off color; + = good color
Conditions: laying hens; for Color Fan Value % of Controls / Chroma C*ab % of Controls / Color Hue h*ab % of Controls / Chroma C*ab Value / Color Fan Value / Color Fan Value, Pigmentation / Color Hue h*ab Value / Color Fan Value Value: egg yolk; for quality in terms of deposition rate and color intensity (chroma C*a*b*) in the egg yolk: compared to the control
Outline: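 ISA Brown laying hens, depleted at least 28 days on low-carotenoid basal diet (<2 mg xanthophylls/kg), fed pigment-supplemented mash ad libitum for three weeks. Pooled yolks of three to six eggs scored with Roche Yolk Colour Fan and measured by reflectance colorimetry (D65, 8°) as CIE L*a*b*, h*, C*; values average four yolk pools.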

[1] = trial H-25/99, 5.0 mg/kg feed, Table 9
[2] = trial H-12/99, 1.0 mg/kg feed, Table 9
[3] = trial H-12/99, 2.0 mg/kg feed, Table 9
[4] = trial H-12/99, 4.0 mg/kg feed, Table 9
[5] = trial H-12/99, 8.0 mg/kg feed, Table 9
[6] = trial H-19/98, 4.0 mg/kg feed, Table 9
[7] = trial H-25/98, 5.0 mg/kg feed, Table 9

Which “Color Fan Value % of Controls” value (average over doses, Table 7) does the source give for CC(C=CC=C(C)C=CC1=C(C)CCCC1(C)C)=CC=CC=C(C)C=CC=C(C)C(=O)OC(C)(C)C [compound (18), tert. butyl beta-apo-8′-carotenoate] here?
The value was 87%.

And the “Chroma C*ab % of Controls” value (average over doses, Table 9)?
The value was 101%.

What about the “Color Fan Value % of Controls” value (average over doses, Table 9) of the same compound?
The value was 87%.

What about the “Color Hue h*ab % of Controls” value (average over doses, Table 9) of the same compound?
Its value is 85%.

What about the “Chroma C*ab % of Controls” value (trial H-25/99, 5.0 mg/kg feed) of the same compound?
The value was 101%.

And the “Chroma C*ab Value” (trial H-25/99, 5.0 mg/kg feed)?
The value was 52.

What about the “Color Fan Value” (trial H-25/99, 5.0 mg/kg feed) of the same compound?
Its value is 7.

And the “Color Fan Value % of Controls” value (trial H-25/99, 5.0 mg/kg feed)?
The value was 87%.

And the “Color Fan Value, Pigmentation” value (trial H-25/99, 5.0 mg/kg feed)?
The value was “+”.

What about the “Color Hue h*ab % of Controls” value (trial H-25/99, 5.0 mg/kg feed) of the same compound?
The value was 85%.

What about the “Color Hue h*ab Value” (trial H-25/99, 5.0 mg/kg feed) of the same compound?
The value was 74.

And the “Color Fan Value % of Controls” value [1]?
The value was 87%.

What about the “Color Fan Value Value” [1] of the same compound?
The value was 7.

And the “Color Fan Value, Pigmentation” value [1]?
The value was “+”.

What about the “quality in terms of deposition rate and color intensity (chroma C*a*b*) in the egg yolk” value (“quality in terms” for short) of the same compound?
Its value is “comparable quality”.

Which “Color Fan Value % of Controls” value (average over doses, Table 7) does the source give for CCCC(C)OC(=O)C(C)=CC=CC(C)=CC=CC=C(C)C=CC=C(C)C=CC1=C(C)CCCC1(C)C (stereo not drawn) [compound (19), 2-pentyl beta-apo-8′-carotenoate] here?
The value was 87%.

What about the “Chroma C*ab % of Controls” value (average over doses, Table 9) of the same compound?
Its value is 113%.

And the “Color Fan Value % of Controls” value (average over doses, Table 9)?
The value was 87%.

And the “Color Hue h*ab % of Controls” value (average over doses, Table 9)?
Its value is 96%.

What about the “Chroma C*ab % of Controls” value (trial H-25/99, 5.0 mg/kg feed) of the same compound?
The value was 113%.

What about the “Chroma C*ab Value” (trial H-25/99, 5.0 mg/kg feed) of the same compound?
The value was 58.

And the “Color Fan Value” (trial H-25/99, 5.0 mg/kg feed)?
Its value is 7.

What about the “Color Fan Value % of Controls” value (trial H-25/99, 5.0 mg/kg feed) of the same compound?
The value was 87%.

What about the “Color Fan Value, Pigmentation” value (trial H-25/99, 5.0 mg/kg feed) of the same compound?
The value was “+”.

And the “Color Hue h*ab % of Controls” value (trial H-25/99, 5.0 mg/kg feed)?
The value was 96%.

What about the “Color Hue h*ab Value” (trial H-25/99, 5.0 mg/kg feed) of the same compound?
Its value is 82.

What about the “Color Fan Value % of Controls” value [1] of the same compound?
Its value is 87%.

And the “Color Fan Value Value” [1]?
Its value is 7.

What about the “Color Fan Value, Pigmentation” value [1] of the same compound?
The value was “+”.

What about the “quality in terms” value of the same compound?
Its value is “comparable quality”.

With CC1=C(/C=C/C(C)=C/C=C/C(C)=C/C=C/C=C(C)/C=C/C=C(\C)C(=O)OC(C)C)C(C)(C)CCC1 [compound (17), isopropyl beta-apo-8′-carotenoate] as the compound, how does the “Color Fan Value % of Controls” value (average over doses, Table 7) read?
The value was 105%.

What about the “Chroma C*ab % of Controls” value (average over doses, Table 9) of the same compound?
The value was 98%.

What about the “Color Fan Value % of Controls” value (average over doses, Table 9) of the same compound?
The value was 105%.

And the “Color Hue h*ab % of Controls” value (average over doses, Table 9)?
Its value is 101%.

And the “Chroma C*ab % of Controls” value (trial H-12/99, 1.0 mg/kg feed)?
Its value is 98%.

And the “Chroma C*ab Value” (trial H-12/99, 1.0 mg/kg feed)?
The value was 39.

And the “Color Fan Value” (trial H-12/99, 1.0 mg/kg feed)?
The value was 3.

What about the “Color Fan Value % of Controls” value (trial H-12/99, 1.0 mg/kg feed) of the same compound?
The value was 66%.

And the “Color Hue h*ab % of Controls” value (trial H-12/99, 1.0 mg/kg feed)?
The value was 101%.

What about the “Color Hue h*ab Value” (trial H-12/99, 1.0 mg/kg feed) of the same compound?
Its value is 95.

And the “Color Fan Value % of Controls” value [2]?
Its value is 66%.

And the “Color Fan Value Value” [2]?
The value was 3.

And the “Chroma C*ab % of Controls” value (trial H-12/99, 2.0 mg/kg feed)?
Its value is 100%.

And the “Chroma C*ab Value” (trial H-12/99, 2.0 mg/kg feed)?
The value was 45.

And the “Color Fan Value” (trial H-12/99, 2.0 mg/kg feed)?
Its value is 6.

And the “Color Fan Value % of Controls” value (trial H-12/99, 2.0 mg/kg feed)?
The value was 104%.

What about the “Color Fan Value, Pigmentation” value (trial H-12/99, 2.0 mg/kg feed) of the same compound?
The value was “+”.

What about the “Color Hue h*ab % of Controls” value (trial H-12/99, 2.0 mg/kg feed) of the same compound?
The value was 101%.

And the “Color Hue h*ab Value” (trial H-12/99, 2.0 mg/kg feed)?
The value was 93.

And the “Color Fan Value % of Controls” value [3]?
Its value is 104%.

What about the “Color Fan Value Value” [3] of the same compound?
Its value is 6.

What about the “Color Fan Value, Pigmentation” value [3] of the same compound?
The value was “+”.

And the “Chroma C*ab % of Controls” value (trial H-12/99, 4.0 mg/kg feed)?
The value was 98%.

What about the “Chroma C*ab Value” (trial H-12/99, 4.0 mg/kg feed) of the same compound?
The value was 51.

And the “Color Fan Value” (trial H-12/99, 4.0 mg/kg feed)?
Its value is 6.

And the “Color Fan Value % of Controls” value (trial H-12/99, 4.0 mg/kg feed)?
Its value is 97%.

What about the “Color Fan Value, Pigmentation” value (trial H-12/99, 4.0 mg/kg feed) of the same compound?
Its value is “+”.

What about the “Color Hue h*ab % of Controls” value (trial H-12/99, 4.0 mg/kg feed) of the same compound?
Its value is 102%.

What about the “Color Hue h*ab Value” (trial H-12/99, 4.0 mg/kg feed) of the same compound?
Its value is 90.

What about the “Color Fan Value % of Controls” value [4] of the same compound?
The value was 97%.

What about the “Color Fan Value Value” [4] of the same compound?
The value was 6.

And the “Color Fan Value, Pigmentation” value [4]?
Its value is “+”.

And the “Chroma C*ab % of Controls” value (trial H-12/99, 8.0 mg/kg feed)?
The value was 96%.

What about the “Chroma C*ab Value” (trial H-12/99, 8.0 mg/kg feed) of the same compound?
Its value is 54.

What about the “Color Fan Value” (trial H-12/99, 8.0 mg/kg feed) of the same compound?
The value was 9.

And the “Color Fan Value % of Controls” value (trial H-12/99, 8.0 mg/kg feed)?
The value was 156%.

And the “Color Fan Value, Pigmentation” value (trial H-12/99, 8.0 mg/kg feed)?
The value was “+”.

What about the “Color Hue h*ab % of Controls” value (trial H-12/99, 8.0 mg/kg feed) of the same compound?
Its value is 100%.

What about the “Color Hue h*ab Value” (trial H-12/99, 8.0 mg/kg feed) of the same compound?
The value was 85.

What about the “Color Fan Value % of Controls” value [5] of the same compound?
Its value is 156%.

And the “Color Fan Value Value” [5]?
The value was 9.

And the “Color Fan Value, Pigmentation” value [5]?
Its value is “+”.

And the “Chroma C*ab % of Controls” value (trial H-19/98, 4.0 mg/kg feed)?
Its value is 97%.

And the “Chroma C*ab Value” (trial H-19/98, 4.0 mg/kg feed)?
The value was 51.

What about the “Color Fan Value” (trial H-19/98, 4.0 mg/kg feed) of the same compound?
Its value is 5.

What about the “Color Fan Value % of Controls” value (trial H-19/98, 4.0 mg/kg feed) of the same compound?
Its value is 79%.

What about the “Color Fan Value, Pigmentation” value (trial H-19/98, 4.0 mg/kg feed) of the same compound?
The value was “+”.

And the “Color Hue h*ab % of Controls” value (trial H-19/98, 4.0 mg/kg feed)?
The value was 106%.

And the “Color Hue h*ab Value” (trial H-19/98, 4.0 mg/kg feed)?
Its value is 89.

And the “Color Fan Value % of Controls” value [6]?
The value was 79%.

What about the “Color Fan Value Value” [6] of the same compound?
The value was 5.

And the “Color Fan Value, Pigmentation” value [6]?
The value was “+”.

What about the “Chroma C*ab % of Controls” value (trial H-25/98, 5.0 mg/kg feed) of the same compound?
The value was 99%.

What about the “Chroma C*ab Value” (trial H-25/98, 5.0 mg/kg feed) of the same compound?
Its value is 52.

What about the “Color Hue h*ab % of Controls” value (trial H-25/98, 5.0 mg/kg feed) of the same compound?
The value was 98%.

And the “Color Hue h*ab Value” (trial H-25/98, 5.0 mg/kg feed)?
The value was 86.

And the “Color Fan Value % of Controls” value [7]?
Its value is 130%.

What about the “Color Fan Value Value” [7] of the same compound?
The value was 9.

What about the “Color Fan Value” (trial H-25/99, 5.0 mg/kg feed) of the same compound?
The value was 9.

What about the “Color Fan Value % of Controls” value (trial H-25/99, 5.0 mg/kg feed) of the same compound?
The value was 130%.

And the “quality in terms” value?
Its value is “comparable quality”.
